Here are results for 66 compounds from ChEMBL document CHEMBL4765284, “Optimization of 5-substituted thiazolyl ureas and 6-substituted imidazopyridines as potential HIV-1 latency reversing agents” (Eur J Med Chem, 2020).

Series [1] is described as follows: Metabolic stability in mouse liver microsomes assessed as half life at 1 uM measured upto 60 mins by LC-MS anlaysis. It is filed as ADME, Microsome.
A short description of series [2]: Metabolic stability in human liver microsomes assessed as intrinsic clearance at 1 uM measured upto 60 mins by LC-MS analysis. The conditions noted are these: read-out: CLH. The class given is ADME, Microsome. A general note: Liver microsomes are vesicles of endoplasmic reticulum, rich in cytochrome P450 enzymes.
The test system of series [3] is Human immunodeficiency virus 1. Description: Antiviral activity against HIV-1 infected in FlpIn-HEK293 cells assessed as activation of long terminal repeat driven gene expression incubated for 72 hrs by luciferase based cellular assay. It is filed as functional, organism-based. The conditions noted are these: Human immunodeficiency virus 1, HEK293, 72 h.
Series [4] has as its system Cytomegalovirus. Description: Antiviral activity against CMV infected in FlpIn-HEK293 cells assessed as click beetle green reporter driven gene expression incubated for 72 hrs by luciferase based cellular assay. It is filed as functional, organism-based. The following applies: HEK293, 72 h.
The nature of series [5]: Aqueous solubility of compound at pH 2 by nephelometry. It is filed as physicochemical.
Series [6] in a line: Metabolic stability in human liver microsomes assessed as half life at 1 uM measured upto 60 mins by LC-MS anlaysis. The class given is ADME, Microsome.
Series [7] in a line: Metabolic stability in mouse liver microsomes assessed as intrinsic clearance at 1 uM measured upto 60 mins by LC-MS anlaysis. The class given is ADME, Microsome. The following applies: read-out: CLH.
Series [8] in a line: Aqueous solubility of compound at pH 6.5 by nephelometry. It is filed as physicochemical.

pEC50: −log10 of the molar value. Values after ≈ are worked out from the molar mass of the structure shown.

The term half-life denotes the time needed for the level to fall by half in the phase considered. A word on the pEC50: it is the negative decadic logarithm of the EC50, by convention in mol/L. In general, solubility (kinetic) refers to the concentration staying in solution when a stock, usually in DMSO, is diluted into the medium. In the case of `Cc1cnc2[nH]c(N3CCN(c4ccc(C)c(Cl)c4)CC3)nc2c1`, the results for the half-life at 1 µM in series [1] and in series [6] were 8 min and 15 min, respectively. For the same compound, the microsomal CLint at 1 µM worked out at 115 µL/min/mg in series [2] and 224 µL/min/mg in series [7]. For the same compound, the results for the pEC50 in series [3] and in series [4] were 5.49 and 5.55, respectively. Besides, the results for the kinetic solubility in series [5] and in series [8] were 50 µM (≈ 17.1 µg/mL) and less than 1.6 µM, respectively.
For `Cc1cnc(NC(=O)N2CCN(c3cncnc3)CC2)s1`, the negative logarithm of the EC50 (pEC50) in series [3] and in series [4] was less than 4.40 each time.
For the compound `Cc1cnc(NC(=O)N2CCN(c3ccc(Cl)c(Cl)c3)CC2)s1`, the negative logarithm of the EC50 (pEC50) in series [3] was 6.03; in series [4] it was 6.31.
Taken in the same sequence, the figures for `Cc1cc(N[C@@H]2CCCN(C(=O)Nc3ncc(Cl)s3)C2)ccc1Cl` were less than 4.40 and less than 4.40.
Taken in the same sequence, the figures for `Cc1cnc(NC(=O)N2CCN(c3ccc(Cl)c(C)c3)CC2)s1` were 6.22 and 5.64.
Taken in the same sequence, the figures for `Cc1cnc2[nH]c(CCCOc3ccc(C)c(Cl)c3)nc2c1` were 4.92 and 4.62.
On to `Cc1cnc(NC(=O)N2CCCN(c3ccc(C)c(Cl)c3)CC2)s1`, for which the negative logarithm of the EC50 (pEC50) in series [3] is 5.00; in series [4], 4.68.
Taken in the same sequence, the figures for `Cc1cc(OC2CCN(C(=O)Nc3ncc(Cl)s3)CC2)ccc1Cl` were 4.70 and 4.70.
As for `Cc1cnc(NC(=O)N2CCN(c3ccccc3)CC2)s1`, the pEC50 in series [3] is 5.77; in series [4] it was 5.30.
Take `Cc1cnc(NC(=O)N2CCC[C@H](Nc3ccc(Cl)c(C)c3)C2)s1`: the pEC50 in series [3] was less than 4.40.
For the compound `Cc1cnc(NC(=O)N2CCN(c3cc(C(F)(F)F)c(Cl)cn3)CC2)s1`, the results for the negative-log EC50 (pEC50) in series [3] and in series [4] were 6.14 and less than 4.40, respectively.
The like results for `Cc1cnc(NC(=O)N2CCN(c3ccc(Cl)cc3)CC2)s1` were, in that order, 5.57 and 5.26.
In the case of `Cc1cnc2[nH]c(CCCOc3ccc(Cl)c(Cl)c3)nc2c1`, the pEC50 in series [3] was 4.85; in series [4], 4.55.
In the case of `Cc1cnc(NC(=O)N2CC(Nc3ccc(C)c(Cl)c3)C2)s1`, the pEC50 in series [3] was 6.17; in series [4], 5.52.
For the compound `O=C(Nc1ncc(Cl)s1)N1CCN(c2cncnc2)CC1`, the negative-log EC50 (pEC50) in series [3] was 5.05; in series [4], 4.92.
Taken in the same sequence, the figures for `N#Cc1cnc(NC(=O)N2CCN(c3ccc(Cl)cc3)CC2)s1` were 5.82 and 5.44.
The like results for `Cc1cnc2sc(CCCOc3ccc(C)c(Cl)c3)nc2c1` were, in that order, less than 4.40 and less than 4.40.
The like results for `Cc1ccc(OCCCc2nc3ncc(Cl)cc3s2)cc1Cl` were, in that order, less than 4.40 and less than 4.40.
In the case of `Cc1ccc(N2CCC(C(=O)Nc3ncc(Cl)s3)CC2)cc1Cl`, the pEC50 in series [3] is 5.70; in series [4] it was less than 4.40.
Turning to `Cc1cnc(NC(=O)N2CCN(c3ccc(C)c(Cl)c3)CC2)s1`, the pEC50 in series [3] is 6.33; in series [4], 5.30.
In the case of `Cc1cc(OC2CCN(C(=O)Nc3ncc(Cl)s3)C2)ccc1Cl` (centres undefined), the results for the pEC50 in series [3] and in series [4] were 5.82 and 5.60, respectively.
The like results for `Cc1ccc(N2CCN(C(=O)Nc3ncc(Cl)s3)CC2C)cc1Cl` (centres undefined) were, in that order, 6.09 and 5.43.
Taken in the same sequence, the figures for `Cc1cnc(NC(=O)N2CCC[C@@H](Nc3ccc(Cl)c(C)c3)C2)s1` were less than 4.40 and less than 4.40.
The like results for `Cc1ccc(N2CC3(CN(C(=O)Nc4ncc(Cl)s4)C3)C2)cc1Cl` were, in that order, 4.80 and 4.72.
In the case of `Cc1cnc(NC(=O)N2CCC(Oc3ccc(Cl)c(C)c3)CC2)s1`, the pEC50 in series [3] was less than 4.40; in series [4], 4.40.
Taken in the same sequence, the figures for `Cc1cc(N2CCN(C(=O)Nc3ncc(Cl)s3)CC2)ncc1C#N` were 6.34 and 6.00.
Taken in the same sequence, the figures for `Cc1cnc(NC(=O)N2CC(N(C)c3ccc(C)c(Cl)c3)C2)s1` were 4.92 and 4.80.
In the case of `Clc1cnc2[nH]c(CCCOc3ccc(Cl)c(Cl)c3)nc2c1`, the pEC50 in series [3] was 5.48; in series [4], 5.92.
Taken in the same sequence, the figures for `Cc1cnc(NC(=O)N2CCC(N(C)c3ccc(Cl)c(C)c3)C2)s1` (centres undefined) were less than 4.40 and 4.48.
Turning to `Cc1cc(NC2CCN(C(=O)Nc3ncc(Cl)s3)CC2)ccc1Cl`, the pEC50 in series [3] and in series [4] was less than 4.40 in each case.
With `Clc1cnc2[nH]c(N3CCN(c4ccc(Cl)c(Cl)c4)CC3)nc2c1`, the pEC50 in series [3] is 6.01; in series [4], 5.59.
Taken in the same sequence, the figures for `Cc1ccc(N2CCN(C(=O)Nc3nccs3)CC2)cc1Cl` were 5.47 and 5.40.
Regarding `Cc1cnc(NC(=O)N2CC3(C2)CN(c2ccc(C)c(Cl)c2)C3)s1`, the pEC50 in series [3] and in series [4] was less than 4.40 each time.
For `Cc1cnc(NC(=O)N2CCN(c3ccc(C)c(Cl)c3)C(C)C2)s1` (centres undefined), the pEC50 is 5.05 in series [3] and 5.19 in series [4].
The like results for `Cc1cnc(NC(=O)N2CCC(Nc3ccc(Cl)c(C)c3)CC2)s1` were, in that order, less than 4.40 and 4.70.
As for `Cc1ccc(N2CCCN(C(=O)Nc3ncc(Cl)s3)CC2)cc1Cl`, the results for the pEC50 in series [3] and in series [4] were 4.66 and 4.72, respectively.
With `Cc1cnc2[nH]c(N3CCN(c4ccc(Cl)c(Cl)c4)CC3)nc2c1`, the pEC50 was 6.12 in series [3] and 6.09 in series [4].
The like results for `Cc1cc(N(C)C2CCN(C(=O)Nc3ncc(Cl)s3)C2)ccc1Cl` (centres undefined) were, in that order, 4.96 and 4.70.
The like results for `Cc1cnc(NC(=O)N2CCN(c3cccc(C#N)c3)CC2)s1` were, in that order, 6.64 and 5.74.
The like results for `Cc1cc(N2CCN(C(=O)Nc3ncc(Cl)s3)CC2)ccc1Cl` were, in that order, 6.40 and 6.05.
For the compound `Cc1cc(N(C)C2CCN(C(=O)Nc3ncc(Cl)s3)CC2)ccc1Cl`, the pEC50 in series [3] and in series [4] was less than 4.40 in each case.
In the case of `Cc1cnc(NC(=O)N2CCN(c3cnc(C#N)c(C)c3)CC2)s1`, the pEC50 in series [3] is 5.00; in series [4], 4.68.
The like results for `Cc1ccc(N2CCN(c3nc4cc(Br)cnc4[nH]3)CC2)cc1Cl` were, in that order, 6.49 and less than 6.52.
Taken in the same sequence, the figures for `Cc1cnc(NC(=O)N2CCN(c3ccc(C)c(Cl)c3)CC2C)s1` (centres undefined) were 5.30 and 5.28.
For the compound `Cc1cc(N[C@H]2CCCN(C(=O)Nc3ncc(Cl)s3)C2)ccc1Cl`, the pEC50 in series [3] was less than 4.40.
On to `Cc1ccc(N2CCN(C(=O)Nc3ncc(C(F)(F)F)s3)CC2)cc1Cl`, for which the pEC50 in series [3] is 5.89; in series [4], less than 5.70.
Taken in the same sequence, the figures for `O=C(Nc1ncc(C(F)(F)F)s1)N1CCN(c2cnc(Cl)c(Cl)c2)CC1` were 6.15 and 6.32.
With `O=C(Nc1ncc(Cl)s1)N1CCN(c2ccc(Cl)cc2)CC1`, the pEC50 in series [3] was 6.46; in series [4], 5.79.
The like results for `O=C(Nc1ncc(Cl)s1)N1CCN(c2ccc(Cl)c(Cl)c2)CC1` were, in that order, 6.51 and 6.10.
Taken in the same sequence, the figures for `Cc1ccc(OC2CN(C(=O)Nc3ncc(Cl)s3)C2)cc1Cl` were 6.28 and 5.72.
Taken in the same sequence, the figures for `Cc1cnc(NC(=O)N2CCC(Oc3ccc(Cl)c(C)c3)C2)s1` (centres undefined) were 5.70 and 5.28.
With `Cc1cc(N2CCN(C(=O)Nc3ncc(C#N)s3)CC2)ccc1Cl`, the pEC50 is 6.15 in series [3] and 5.64 in series [4].
The like results for `Cc1cnc(NC(=O)N2CC(Oc3ccc(C)c(Cl)c3)C2)s1` were, in that order, 6.66 and 5.72.
Take `Cc1cc(OC2CCCN(C(=O)Nc3ncc(Cl)s3)C2)ccc1Cl` (centres undefined): in series [3], the pEC50 is less than 4.40.
As to `Cc1cnc(NC(=O)N2CCC(Nc3ccc(Cl)c(C)c3)C2)s1` (centres undefined), the pEC50 was 5.21 in series [3] and 4.85 in series [4].
The like results for `Cc1cnc(NC(=O)C2CCN(c3ccc(C)c(Cl)c3)CC2)s1` were, in that order, 5.60 and less than 4.40.
Taken in the same sequence, the figures for `Cc1ccc(N(C)C2CN(C(=O)Nc3ncc(Cl)s3)C2)cc1Cl` were 6.03 and 5.55.
The like results for `Cc1ccc(N2CCN(C(=O)Nc3ncc(Cl)s3)C(C)C2)cc1Cl` (centres undefined) were, in that order, 5.89 and 5.82.
Take `Cc1cnc(NC(=O)CCCOc2ccc(Cl)c(C)c2)s1`: the half-life at 1 µM was 2 min in series [1] and 10 min in series [6]. Further, the microsomal CLint at 1 µM came to 175 µL/min/mg in series [2] and 815 µL/min/mg in series [7]. In addition, the solubility (kinetic) is less than 1.1 µM in series [5] and 1.1 µM (≈ 0.357 µg/mL) in series [8].
Consider `Cc1cnc2[nH]c(N3CCN(c4cnc(Cl)c(Cl)c4)CC3)nc2c1`, for which the pEC50 in series [3] is 5.89; in series [4], 6.89.
As for `Cc1cnc(NC(=O)N2CCN(c3cnc(Cl)c(Cl)c3)CC2)s1`, the pEC50 is 6.52 in series [3] and 6.24 in series [4].
The like results for `Cc1cnc2[nH]c(CCCOc3cnc(Cl)c(Cl)c3)nc2c1` were, in that order, 4.68 and 4.47.
On to `O=C(Nc1ncc(Cl)s1)N1CCN(c2cc(C(F)(F)F)c(Cl)cn2)CC1`, for which the pEC50 in series [3] is 6.04; in series [4], 5.74.
On to `Cc1cc(N2CCN(C(=O)Nc3ncc(Cl)s3)CC2)cnc1C#N`, for which the figures for the pEC50 in series [3] and in series [4] were 6.68 and 6.08, respectively.
The like results for `Cc1cnc(NC(=O)N2CCN(c3cc(C)c(C#N)cn3)CC2)s1` were, in that order, 5.38 and less than 4.40.
Taken in the same sequence, the figures for `Cc1ccc(N2CCN(C(=O)Nc3ncc(C#N)s3)CC2)cc1Cl` were 6.62 and 5.64.
